Data on six molecules can be found in US11192867B2, “Microbiocidal oxadiazole derivatives” (SYNGENTA PARTICIPATIONS AG, priority 2016, dated 2021).

Series [1] relates to Glomerella lagenarium (Colletotrichum lagenarium). The series can be described thus: Fungicidal activity against Glomerella lagenarium (Colletotrichum lagenarium) liquid culture / cucumber / preventative (anthracnose). Type of series: cell-based. The note with it: Colletotrichum orbiculare, 72 h; 20 ppm in the applied formulation; liquid culture (PDB), growth inhibition measured photometrically 3 to 4 days after application; vs untreated control; read-out: disease control. A digest of the protocol: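 Photometric read-out of fungal growth 3 to 4 days after application, expressed as percent control relative to untreated wells. Plates held at 24 °C. Compound placed in DMSO before adding PDB broth seeded with conidia from cryogenic storage.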

Series [2] deals with Puccinia recondita f. sp. Tritici. Nature of the series: Fungicidal activity against Puccinia recondita f. sp. Tritici / wheat / leaf disc curative (brown rust). Type of series: in vivo. Conditions: foliar, 24 h, 200 ppm in the applied formulation, wheat leaf segments cv. Kanzler, applied 1 day after inoculation, vs untreated control, read-out: disease control. The essentials: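 Compound applied 1 day after spore inoculation of wheat cv. Kanzler leaf segments on agar (dark, 19 °C, 75% RH before treatment). After further incubation under 12 h light/12 h dark at 19 °C and 75% RH, disease control relative to untreated segments rated 6–8 days post-application.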

The test system is the same in series [3]. The series can be described thus: Fungicidal activity against Puccinia recondita f. sp. Tritici / wheat / leaf disc preventative (brown rust). The format is in vivo. The note with it: foliar, 200 ppm in the applied formulation, wheat leaf segments cv. Kanzler, inoculated 1 day after application, vs untreated control, read-out: disease control. A digest of the protocol: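 Preventative leaf-segment test, cv. Kanzler on agar: spray compound, inoculate with spore suspension 1 d post-application, hold at 19° C./75% rh, 12 h/12 h light cycle. Read-out = % disease control vs untreated check at 7–9 d; 200 ppm in applied formulation.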

For a further series, the system named is Phakopsora pachyrhizi. Nature of the series: Fungicidal activity against Phakopsora pachyrhizi / soybean / leaf disc preventative (Asian soybean rust). The format is in vivo. The note with it: foliar, 200 ppm in the applied formulation, soybean leaf disks, vs untreated control, read-out: disease control. A digest of the protocol: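 Preventative test: compound sprayed onto soybean leaf discs one day before spore inoculation of the lower leaf face. Incubation at 20 °C and 75% rh, first 24-36 h in darkness, then a 12 h light cycle. Disease control versus untreated discs read 12-14 days after application.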

In turn, `CON=CCCNC(=O)c1ccc(-c2noc(C(F)(F)F)n2)cc1F` [Compound 1.163, 2-fluoro-N-(3-methoxyimino-propyl)-4-[5-(trifluoromethyl)-1,2,4-oxadiazol-3-yl]benzamide] had a melting point of 98 to 100 °C. In addition, the inhibition of growth at 20 ppm in series [1] was at least 80%. The pest or weed control at 200 ppm in series [2] is at least 80%. Further, the pest or weed control at 200 ppm in series [3] was at least 80%. Moreover, the pest or weed control at 200 ppm with Phakopsora pachyrhizi was at least 80%.
Take `CCON=C(C)CNC(=O)c1ccc(-c2noc(C(F)(F)F)n2)c(F)c1` [Compound 1.165, N-(2-ethoxyiminopropyl)-3-fluoro-4-[5-(trifluoromethyl)-1,2,4-oxadiazol-3-yl]benzamide]: the melting point was in the range of 120 to 124 °C. Also, the inhibition of growth at 20 ppm in series [1] is at least 80%. Further, the pest or weed control at 200 ppm in series [2] is at least 80%. In addition, the pest or weed control at 200 ppm in series [3] is at least 80%. For the same molecule, the pest or weed control at 200 ppm in the series on Phakopsora pachyrhizi was at least 80%.
In the case of `O=C(NCCC=NO)c1ccc(-c2noc(C(F)(F)F)n2)cc1` [Compound 1.154, N-(3-hydroxyimino-propyl)-4-[5-(trifluoromethyl)-1,2,4-oxadiazol-3-yl]benzamide], the melting point is 180 to 183 °C. Also, the inhibition of growth at 20 ppm in series [1] was at least 80%. In addition, the pest or weed control at 200 ppm in series [2] was at least 80%. For the same molecule, in series [3], the pest or weed control at 200 ppm was at least 80%. In addition, the pest or weed control at 200 ppm in the series on Phakopsora pachyrhizi was at least 80%.
Molecule `CON=CC(C)NC(=O)c1ccc(-c2noc(C(F)(F)F)n2)c(F)c1` (stereo not drawn) [Compound 1.159, 3-fluoro-N-(2-methoxyimino-1-methyl-ethyl)-4-[5-(trifluoromethyl)-1,2,4-oxadiazol-3-yl]benzamide] registered a melting point of 119 to 121 °C. Also, the inhibition of growth at 20 ppm in series [1] is at least 80%. Besides, the pest or weed control at 200 ppm in series [2] was at least 80%. In addition, the pest or weed control at 200 ppm in series [3] was at least 80%. For the same molecule, the pest or weed control at 200 ppm in the series with Phakopsora pachyrhizi is at least 80%.
Regarding `CON=CCCNC(=O)c1ccc(-c2noc(C(F)(F)F)n2)cc1` [Compound 1.152, N-(3-methoxyimino-propyl)-4-[5-(trifluoromethyl)-1,2,4-oxadiazol-3-yl]benzamide], the melting point is 136 to 140 °C. The inhibition of growth at 20 ppm in series [1] is at least 80%. For the same molecule, the pest or weed control at 200 ppm in series [2] was at least 80%. Besides, the pest or weed control at 200 ppm in series [3] was at least 80%. For the same molecule, the pest or weed control at 200 ppm in the series on Phakopsora pachyrhizi is at least 80%.
Molecule `CO/N=C(\C)CNC(=O)c1ccc(-c2noc(C(F)(F)F)n2)cc1` [Compound 1.13, N-[(2E)-2-methoxyimino-propyl]-4-[5-(trifluoromethyl)-1,2,4-oxadiazol-3-yl]benzamide] showed a melting point of 145 to 146 °C. Moreover, in series [1], the inhibition of growth at 20 ppm was at least 80%. The pest or weed control at 200 ppm in series [2] is at least 80%. In addition, the pest or weed control at 200 ppm in series [3] was at least 80%. Moreover, the pest or weed control at 200 ppm in the series with Phakopsora pachyrhizi is at least 80%.

As a reminder, the melting point is the temperature, or range, at which the solid turns liquid.
